{
  "source": "patent US11253527B2",
  "about": "“Method and composition for inhibiting virus infection” (priority 2019, dated 2022)",
  "tested_on": "HSV-1 virus (KOS strain)",
  "experiment": "HSV-1 viral yields in supernatants of OC3 cells, plaque assay",
  "assay_type": "cell-based, Herpes simplex virus type 1",
  "description": "FIG. 4 provides Experimental conditions for evaluation of the effects of Antrodia camphorata fruit body extracts on oral epithelial cells during HSV-1 infection. Three experimental conditions, including no-treatment, pre-treatment and post-treatment were performed. Oral epithelial cells (OC3) were pre-treated with media only or media containing each Antrodia camphorata extracts for 2 hours, followed by HSV-1 inoculation. Cells were infected with HSV-1 viruses at multiplicity of infection (MOI) of 5 or mock infected for 1 hour at 37° C. for viral entry to occur. Antrodia camphorata extracts were not added during viral inoculation for 1 hour to avoid of its direct effects on virions. Mock- or HSV-1-infected cells were further incubated in the absence or presence of the drug for 19 hours.\nThe oral epithelial cell line (OC3) was used to determine the possible effects of Antrodia camphorata extracts on oral epithelial cells during HSV-1 infection. Cell monolayers were treated as illustrated in FIG. 4 (please also see details in the Materials and Methods section). Three experimental conditions, including no-treatment, pre-treatment and post-treatment were performed. Whether these Antrodia camphorata extracts have effects before or after viral infection were examined. The effects of Antrodia camphorata extracts on viral propagation (viral yields) in infected oral epithelial cells were examined. At 19-20 h post infection, viral yields in the supernatants were determined using the plaque assay. Viability of treated cells was also determined using the MTT assay for the mitochondrial dehydrogenase activity. Moreover, purified HSV-1 virions were directly treated with Antrodia camphorata extracts to examine whether Antrodia camphorata extracts exert anti-HSV-1 activity directly on virus particles before viral entry.\nHSV-1 virus (KOS strain) from the extra-cellular fluid of infected Vero cells was purified using sucrose-gradient. Purified viruses were stored frozen in small aliquots. Purified viruses were titered using the plaque assay.\nOral epithelial cells (OC3 cells) were infected with HSV-1 at multiplicity of infection (MOI) of 5 or mock infected for 1 h at 37° C. for viral entry to occur. Unbound viruses were removed. Infected cells were then overlaid with appropriate media and incubated at 37° C. The Antrodia camphorata fruit body extracts used were A2 (Antrodia camphorata extracts), A3 (dehydrosulphurenic acid), A4 (antcin K), A5 (versisponic acid), and A6 (dehydroeburicoic acid). For the effects of Antrodia camphorata fruit body extracts, oral cells were treated in three different experimental conditions (FIG. 1): (1) no treatment, (2) pre-treatment with each Antrodia camphorata fruit body extracts before infection and (3) post-treatment with each Antrodia camphorata fruit body extracts after infection. Purified HSV-1 virions were also incubated directly with media only or media containing Antrodia camphorata fruit body extracts. The viral infectivity of treated virions was then examined using the plaque assay.\nViral titers in the supernatants after infection were determined using the plaque assay. Cells were grown to confluence and infected with tenfold serial dilution of the samples. Cells were then overlaid with medium containing 3% carboxymethylcellulose to prevent the formation of secondary plaques. Cells were incubated until well-defined clear plaques were formed. Cells were fixed with 3.7% formaldehyde and stained with crystal violet. Plaques were observed and counted under an inverted microscope. The viral yield of the media-pretreated HSV-1 infected control was considered to be 100%.",
  "data": [
    {"smiles": "C=C(CC[C@@H](C)[C@H]1CC[C@H]2C3=C(C(=O)C[C@]12C)[C@@]1(C)CCC(O)[C@](C)(O)C1CC3O)C(C)C(=O)O", "note": "(stereo partly drawn) [A4, antcin K]", "values": [
      {"measurement": "viral yields in the supernatants, post-treatment", "setting": "OC3 cells post-treated after HSV-1 infection (MOI 5), 19 hours", "value": "significantly reduced"},
      {"measurement": "viral yields in the supernatants, pre-treatment", "setting": "OC3 cells pre-treated 2 hours before HSV-1 infection (MOI 5)", "value": "little effects"},
      {"measurement": "viral yield reduced to", "setting": "infected OC3 cells post-treated with 100 μg/ml, media control = 100%", "value": 19, "unit": "%"}
    ]}
  ]
}
